From publication PMC7501296, “Rapid and direct control of target protein levels with VHL-recruiting dTAG molecules” (Nature Communications, 2020) come the findings set out here.

Where “and” joins values, the source holds several entries; their conditions need not be identical. Equal values may be shown once.

What all share (format): cell-based
In one test the target is T1, FKBP12^F36V-KRAS^G12V (Homo sapiens, UniProt P01116+P62942, F37V/G12V).
T1 construct: KRAS G12V (fusion partner, same polypeptide); expressed in transfected cells
Put plainly: Immunoblot of PATU-8902 FKBP12F36V-KRASG12V; KRAS-/- clone. Conditions: pretreated 2 h prior to dTAGV-1 for 4 h. On the procedure:
(§1) PATU-8902 LACZ-FKBP12^F36V and FKBP12^F36V-KRAS^G12V; KRAS^−/− cells and 293T cells were lysed with RIPA buffer supplemented with cOmplete protease inhibitors (Roche), PhosSTOP phosphatase inhibitors (Roche), and 0.1% benzonase (Novagen). Proteins were separated using NuPAGE Bolt^TM Bis–Tris gels (Thermo Fisher Scientific) and transferred to nitrocellulose membranes, which were blocked with Odyssey Blocking Buffer (LI-COR) and incubated with primary antibodies overnight. Membranes were washed three times with TBS-T, incubated with the appropriate fluorescently labeled infrared secondary antibodies, washed again three times with TBS-T, and assessed using an Odyssey CLx Imager (LI-COR)[6],[15]. EWS502 cells were lysed with Cell Lysis Buffer (Cell Signaling Technology) supplemented with cOmplete protease inhibitors (Roche). Proteins were separated using SDS-PAGE gels and transferred to PVDF membranes, which were blocked with 5% milk in TBS-T and incubated with primary antibodies overnight. Membranes were washed five times with TBS-T, incubated with the appropriate horseradish peroxidase-conjugated secondary antibodies, washed again five times with TBS-T, and imaged. The following primary antibodies were employed in this study: HA (Cell Signaling Technology #3724 and #2367, dilution at 1:1000), phospho-ERK1/2 T202/Y204 (Cell Signaling Technology #4370, dilution at 1:1000), ERK1/2 (Cell Signaling Technology #4696, dilution at 1:1000), phospho-AKT S473 (Cell Signaling Technology #4060, dilution at 1:1000), AKT (Cell Signaling Technology #2920, dilution at 1:1000), FKBP12 (Abcam #ab24373, dilution at 1:1000), GFP (Cell Signaling Technology #2555, dilution at 1:1000), FLI (Abcam #ab15289, dilution at 1:2000), NKX2-2 (Abcam #ab187375, dilution at 1:1000), GAPDH (Cell Signaling Technology #2118, dilution at 1:3000), Vinculin (Cell Signaling Technology #13901, dilution at 1:3000), β-Actin (Cell Signaling Technology #58169, dilution at 1:3000), and α-Tubulin (Cell Signaling Technology #3873, dilution at 1:5000). Species-specific fluorescently labeled infrared secondary antibodies including IRDye 680LT anti-Mouse IgG (LI-COR #926-68020, dilution at 1:5000), IRDye 800CW anti-Mouse IgG (LI-COR #926-32210, dilution at 1:5000), IRDye 680LT anti-Rabbit IgG (LI-COR #926-68021, dilution at 1:5000), and IRDye 800CW anti-Rabbit IgG (LI-COR #926-32211, dilution at 1:5000) and peroxidase-linked secondary antibodies including anti-Mouse IgG (Thermo Fisher Scientific #45000680, dilution at 1:5000) and anti-Rabbit IgG (Thermo Fisher Scientific #45000682, dilution at 1:5000) were employed as appropriate.
For orientation: Immunoblotting shows a protein as a band on a membrane.

For a further test, the target named is T2, CDK9 (Homo sapiens, UniProt P50750).
T2 construct: endogenous in cells; host or cells: PATU-8902 LACZ-FKBP12^F36V clone
As to the kind of experiment: Immunoblot, co-treatment with THAL-SNS-032 and/or dTAGV-1 in PATU-8902 LACZ-FKBP12F36V clone. Conditions: co-treatment dTAGV-1 + THAL-SNS-032, 24 h. How it is done: as §1, with “Species-specific fluorescently labeled infrared secondary antibodies including IRDye 680LT anti-Mouse IgG (LI-COR #926-68020, dilution at 1:5000), IRDye 800CW anti-Mouse IgG (LI-COR #926-32210, dilution at 1:5000), IRDye 680LT anti-Rabbit IgG (LI-COR #926-68021, dilution at 1:5000), and IRDye 800CW anti-Rabbit IgG (LI-COR #926-32211, dilution at 1:5000) and peroxidase-linked secondary antibodies including anti-Mouse IgG (Thermo Fisher Scientific #45000680, dilution at 1:5000) and anti-Rabbit IgG (Thermo Fisher Scientific #45000682, dilution at 1:5000) were employed as appropriate.” left out

The subject of test [1] is PATU-8902 LACZ-FKBP12^F36V clone. As to the kind of experiment: Antiproliferation, PATU-8902 LACZ-FKBP12F36V clone, 2D-monolayer (CellTiter-Glo). The procedure, abridged:
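Viability of cells grown as 2D-adherent monolayers was determined with the CellTiter-Glo luminescent reagent (Promega). Luminescence signals were read on either an Envision 2104 plate reader (PerkinElmer) or a Fluostar Omega Reader (BMG Labtech), and the resulting data were processed and analyzed in GraphPad PRISM v8 software.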

Test [2] deals with PATU-8902 FKBP12^F36V-KRAS^G12V; KRAS^-/- clone. Put plainly: Antiproliferation, PATU-8902 FKBP12F36V-KRASG12V; KRAS-/- clone, 2D-monolayer (CellTiter-Glo). (ATP-based viability assays read luminescence as a measure of living cells.)
The next test deals with FKBP12^F36V-EWS/FLI. As to the kind of experiment: Immunoblot of EWS502 FKBP12F36V-EWS/FLI; EWS/FLI-/- cells. How it is done:
To generate 293T^WT FKBP12^F36V-KRAS^G12V and 293T^VHL−/− FKBP12^F36V-KRAS^G12V cells, concentrated lentiviral supernatants[6] were applied to 293T^WT and 293T^VHL−/− cells[33] in the presence of 4 µg mL^−1 polybrene and transduced cell lines were selected with 2 µg mL^−1 puromycin. To generate EWS502 FKBP12^F36V-GFP cells, EWS502 cells were transduced with pLEX_305-dTAG-GFP lentiviral supernatant and selected with 1 µg mL^−1 puromycin. To generate EWS502 FKBP12^F36V-EWS/FLI; EWS/FLI^−/− cells, EWS502 cells were co-transduced with pLEX_305-dTAG-EWS/FLI and lentiCRISPR v2-Blast-sgFLI_Ex9 lentiviral supernatants. Cells were then selected with both 1 µg mL^−1 puromycin (pLEX_305-dTAG-EWS/FLI) and 5 µg mL^−1 blasticidin (lentiCRISPR v2-Blast-sgFLI_Ex9). Knockout of endogenous EWS/FLI and the expression of exogenous FKBP12^F36V-EWS/FLI were confirmed by immunoblot and pooled transduced cell populations were employed for this study. PATU-8902 LACZ-FKBP12^F36V and FKBP12^F36V-KRAS^G12V; KRAS^−/− clones were also employed in this study.
PATU-8902 LACZ-FKBP12^F36V and FKBP12^F36V-KRAS^G12V; KRAS^−/− cells and 293T cells were lysed with RIPA buffer supplemented with cOmplete protease inhibitors (Roche), PhosSTOP phosphatase inhibitors (Roche), and 0.1% benzonase (Novagen). Proteins were separated using NuPAGE Bolt^TM Bis–Tris gels (Thermo Fisher Scientific) and transferred to nitrocellulose membranes, which were blocked with Odyssey Blocking Buffer (LI-COR) and incubated with primary antibodies overnight. Membranes were washed three times with TBS-T, incubated with the appropriate fluorescently labeled infrared secondary antibodies, washed again three times with TBS-T, and assessed using an Odyssey CLx Imager (LI-COR)[6],[15]. EWS502 cells were lysed with Cell Lysis Buffer (Cell Signaling Technology) supplemented with cOmplete protease inhibitors (Roche). Proteins were separated using SDS-PAGE gels and transferred to PVDF membranes, which were blocked with 5% milk in TBS-T and incubated with primary antibodies overnight. Membranes were washed five times with TBS-T, incubated with the appropriate horseradish peroxidase-conjugated secondary antibodies, washed again five times with TBS-T, and imaged. […]

The subject of test [3] is EWS502 FKBP12^F36V-EWS/FLI; EWS/FLI^−/− cells. Put plainly: Relative growth of EWS502 FKBP12F36V-EWS/FLI; EWS/FLI-/- cells (CellTiter-Glo). As to conditions: for Antiproliferation (relative growth): replicate values. How it is done:
Cell viability was assayed in 2D-adherent or ultra-low adherent 3D-spheroids using CellTiter-Glo (Promega)[6],[15]. Luminescence was measured on an Envision 2104 plate reader (PerkinElmer) and Fluostar Omega Reader (BMG Labtech) and data was analyzed using GraphPad PRISM v8. Synergy assessments were performed using CellTiter-Glo (Promega) with the following modifications to the protocol described in the ref. [34]. In brief, EWS502 cells were plated at 1000 cells per well in 50 µL of appropriate media in 384-well white culture plates (Corning) allowed to adhere overnight, and 100 nL of compounds were added using a Janus Workstation pin tool (PerkinElmer) for 72 h. Cell viability was measured by addition of 10 µL of CellTiter-glo (Promega), followed by incubation for 15 minutes at room temperature. Luminescence was measured on an Envision 2104 plate reader (PerkinElmer) and data was analyzed using GraphPad PRISM v8.

T1 sequence (P62942+P01116 fused P62942:F37V/P01116:G12V): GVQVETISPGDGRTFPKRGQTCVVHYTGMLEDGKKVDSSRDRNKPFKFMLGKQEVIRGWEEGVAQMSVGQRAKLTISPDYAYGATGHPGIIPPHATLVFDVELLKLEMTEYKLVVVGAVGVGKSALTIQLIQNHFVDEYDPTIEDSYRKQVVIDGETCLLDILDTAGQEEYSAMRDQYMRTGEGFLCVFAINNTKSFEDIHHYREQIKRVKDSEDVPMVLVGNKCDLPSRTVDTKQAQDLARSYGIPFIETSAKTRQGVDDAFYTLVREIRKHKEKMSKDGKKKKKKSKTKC

For `NS(=O)(=O)OC[C@@H]1C[C@@H](n2ccc3c(N[C@H]4CCc5ccccc54)ncnc32)C[C@@H]1O` [MLN4924], the “Effect of pre-treatment on dTAGV-1-induced KRASG12V degradation” value at FKBP12^F36V-KRAS^G12V was “rescued”.

With `CC(C)(C)c1cnc(CSc2cnc(NC(=O)C3CCN(CC(=O)NCCOCCOCCOCCNc4cccc5c4C(=O)N(C4CCC(=O)NC4=O)C5=O)CC3)s2)o1` (stereo not drawn) [THAL-SNS-032], the “Degradation of both LACZ-FKBP12F36V and CDK9 on co-treatment” value on CDK9 is listed as “pronounced degradation”.

As to `CC(C)C[C@H](NC(=O)[C@H](CCc1ccccc1)NC(=O)CN1CCOCC1)C(=O)N[C@@H](Cc1ccccc1)C(=O)N[C@@H](CC(C)C)C(=O)[C@@]1(C)CO1` [carfilzomib], the “Effect of pre-treatment on dTAGV-1-induced KRASG12V degradation” value on FKBP12^F36V-KRAS^G12V is recorded as “rescued”.

Take `CC[C@H](C(=O)N1CCCC[C@H]1C(=O)O[C@H](CCc1ccc(OC)c(OC)c1)c1ccccc1OCC(=O)NCCOCCOCCOCC(=O)N[C@H](C(=O)N1C[C@H](O)C[C@H]1C(=O)N[C@@H](C)c1ccc(-c2scnc2C)cc1)C(C)(C)C)c1cc(OC)c(OC)c(OC)c1` [dTAG-63]: the DMSO-normalized antiproliferation is 13.2737 and 12.6329 and 14.1104 and 10.912 in test [1] (log10[compound] (M) -4.69897); 7.875 and 6.856 and 8.909 and 8.0101 in test [1] (log10[compound] (M) -5.19897); 78.4433 and 69.3624 and 75.8082 and 79.7492 in test [1] (log10[compound] (M) -5.69897); 113.01 and 109.862 and 96.0186 and 107.676 in test [1] (log10[compound] (M) -6.19897); 108.532 and 100.339 and 100.126 and 107.64 in test [1] (log10[compound] (M) -6.69897); 112.463 and 103.538 and 107.565 and 99.0951 in test [1] (log10[compound] (M) -7.19897). The DMSO-normalized antiproliferation is 105.646 and 110.739 and 108.339 and 103.433 in test [1] (log10[compound] (M) -7.69897); 104.397 and 99.4398 and 102.394 and 104.585 in test [1] (log10[compound] (M) -8.19897); 100.586 and 98.6181 and 103.288 and 91.8912 in test [1] (log10[compound] (M) -8.69897); 97.4681 and 95.2333 and 95.4033 and 78.5397 in test [1] (log10[compound] (M) -9.19897); 1.902 and 1.7836 and 2.592 and 1.417 in test [2] (log10[compound] (M) -4.69897); 1.019 and 0.7215 and 1.043 and 0.8704 in test [2] (log10[compound] (M) -5.19897). The DMSO-normalized antiproliferation is 18.9261 and 16.9894 and 19.5961 and 18.1242 in test [2] (log10[compound] (M) -5.69897); 26.0652 and 23.4484 and 26.4223 and 22.5834 in test [2] (log10[compound] (M) -6.19897); 29.8671 and 30.9365 and 33.7587 and 28.015 in test [2] (log10[compound] (M) -6.69897); 63.0328 and 57.9113 and 61.3608 and 60.3114 in test [2] (log10[compound] (M) -7.19897); 91.5315 and 97.3637 and 98.717 and 90.5671 in test [2] (log10[compound] (M) -7.69897); 103.715 and 106.791 and 102.663 and 104 in test [2] (log10[compound] (M) -8.19897). Further, the DMSO-normalized antiproliferation is 99.9165 and 93.5571 and 104.512 and 109.434 in test [2] (log10[compound] (M) -8.69897); 108.333 and 105.196 and 111.04 and 104.691 in test [2] (log10[compound] (M) -9.19897). For the same molecule, the “FKBP12F36V-EWS/FLI degradation, immunoblot” value in the test on FKBP12^F36V-EWS/FLI (EWS502 FKBP12F36V-EWS/FLI, EWS/FLI-/- cells) is “marginal degradation”. Also, in the test with FKBP12^F36V-EWS/FLI (relative to dTAGV-1), the “NKX2-2 protein levels, immunoblot” value is “limited changes”. Besides, the “Antiproliferation (relative growth)” value is 1.033 and 1 and 1.041 and 1.01 and 1.018 and 1.028 and 1.023 and 0.847 in test [3] (Time 0 days); 5.323 and 5.646 and 6.274 and 5.9 and 5.4745 and 5.572 and 6.329 and 5.374 in test [3] (Time 3 days); 8.718 and 8.673 and 8.208 and 9.16 and 8.872 and 9.224 and 8.694 and 9.906 in test [3] (Time 5 days); 8.087 and 8.192 and 8.728 and 8.891 and 8.43 and 7.949 and 9.536 and 9.221 in test [3] (Time 7 days). Moreover, the “Antiproliferative effects upon EWS/FLI degradation” value in test [3] (longer time-points) is “modest antiproliferative effects”.
